Results published in US11122801B2, “Inhibitors of enzymes that confer pesticide resistance” (APRESLABS LTD., priority 2015, dated 2021).

Key:
[1] = tested on: P450 activity derived from Meligethes aeneus; test: P450 activity by deethylation of ethoxycoumarin (Example 7); type: biochemical; conditions: equal concentrations, 30 ug/incubation
Experimental: P450 activity was measured by the deethylation of ethoxycoumarin.
(30 ug/incubation) as used in Example 5.

[2] = biological target: T1, resistance-associated esterase, E4 (Myzus persicae, UniProt P35501); test: Inhibition of purified resistance-associated esterase E4, para-nitrophenyl acetate substrate; type: biochemical, M. persicae; conditions: 3 μL 1% synergist, 10 minutes incubation, 1 mM para-nitrophenyl acetate, 405 nm
T1 sequence (P35501 24-552): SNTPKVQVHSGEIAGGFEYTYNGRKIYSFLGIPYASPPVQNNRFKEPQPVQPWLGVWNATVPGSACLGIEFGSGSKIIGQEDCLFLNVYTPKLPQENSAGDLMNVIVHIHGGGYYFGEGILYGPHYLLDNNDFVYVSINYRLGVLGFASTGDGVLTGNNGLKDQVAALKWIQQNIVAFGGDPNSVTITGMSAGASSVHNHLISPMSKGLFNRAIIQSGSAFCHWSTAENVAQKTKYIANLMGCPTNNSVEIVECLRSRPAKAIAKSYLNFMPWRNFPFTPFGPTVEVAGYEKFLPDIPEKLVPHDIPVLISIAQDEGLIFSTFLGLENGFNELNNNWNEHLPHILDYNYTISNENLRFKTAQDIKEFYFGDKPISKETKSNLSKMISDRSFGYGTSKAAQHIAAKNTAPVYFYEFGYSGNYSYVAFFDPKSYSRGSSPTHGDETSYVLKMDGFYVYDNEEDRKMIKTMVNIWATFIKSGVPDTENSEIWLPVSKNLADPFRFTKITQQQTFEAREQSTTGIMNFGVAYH
Experimental: The assay used 1 mM para-nitrophenyl acetate as a substrate. 10 μL dilute E4 in 40 μL phosphate buffer (pH 7.0) was incubated with 3 μL 1% synergist for 10 minutes. 200 μL of 1 mM para-nitrophenyl acetate was added and the remaining activity was measured at 405 nm in a microplate spectrophotometer (Molecular Devices). Inhibition by the same concentration of PBO is shown for comparison.

[3] = tested on: P450 activity derived from insecticide-resistant B-type B. tabaci; test: P450 activity by deethylation of ethoxycoumarin (Example 5); conditions: 1% (30 ug/incubation), 10 minutes incubation, 7-ethoxycoumarin
Experimental: P450 activity was measured by the deethylation of ethoxycoumarin. 50 μL of the enzyme in the presence/absence of synergists was incubated for 10 minutes after which […] of 0.5 mm 7-ethyoxycoumarin in a phosphate buffer (pH 7.8) was added/incubated for a further 5 minutes at 30° C. after which 10 μL of 9.6 mm NaDPH was added. Fluorometric units (Fu) were measured with excitation wavelengths of 370 nm and 460 nm.

[4] = tested on: Houseflies (Musca domestica); test: Housefly topical mortality with α-cypermethrin and Syn A (Example 1); type: in vivo; conditions: α-cypermethrin alone, 1 μL of 0.0025 g L^−1, after 24 hrs
Experimental: Houseflies (Musca domestica) were treated with 1 μL of a diagnostic concentration (0.0025 g L^−1) of α-cypermethrin, such that about 20% of the flies had died after 24 hrs.
With the addition of 1% ‘Syn A’, (i.e. 10 ug/fly) the potassium salts of fatty acids (C14-C18) obtained as a by-product of olive oil production, the mortality increased to about 70% after 24 hours. The potassium salt synergist was applied first, and the insecticide was applied within 1 hr of the application of the synergist.
The mortality rate when Syn A was used on its own was about 10%.

Compound: CCCCOCCOCCOCc1cc2c(cc1CCC)OCO2 [PBO, piperonyl butoxide]
- inhibition of P450 activity [1]: inhibition

Compound: CCCCC/C=C\C/C=C\CCCCCCCC(=O)O [linoleic acid]
- inhibition of esterase E4 [2]: inhibition

Compound: CCCCCCCC/C=C\CCCCCCCC(=O)O [oleic acid]
- inhibition of esterase E4 [2]: inhibition
- inhibition of P450 activity [3]: inhibition

Compound: CC1(C)C(C=C(Cl)Cl)C1C(=O)OC(C#N)c1cccc(Oc2ccccc2)c1 (stereo not drawn) [α-cypermethrin]
- flies died (mortality) [4]: about 20%
